Measured values published in ChEMBL document CHEMBL5537161, “Structure-Guided Design, Synthesis, and Antivirulence Assessment of Covalent Staphylococcus aureus Sortase A Inhibitors” (J Med Chem, 2024).
Values after ≈ are worked out from the molar mass of the structure shown. Active and inactive are the calls of the source. The calls are words filed in the database; no cut-off is given here.

Assays:
[1] = molecular target: T1, Sortase A (Staphylococcus aureus, UniProt Q9S446, N24DEL); test: Inhibition of Staphylococcus aureus Sortase A N24 deletion mutant transpeptidation using IsdA64-323 as substrate preincubated for 20 mins followed by substrate addition and measured after 1.5 hrs by SDS-PAGE analysis
[2] = molecular target: T1, Sortase A; test: Inhibition of Staphylococcus aureus sortase A N24 deletion mutant using Abz-LPATG-Dnp as substrate preincubated for 20 mins followed by substrate addition by FRET assay
[3] = test system: Staphylococcus aureus; test: Bactericidal activity against Staphylococcus aureus Newman assessed as reduction in bacterial growth incubated for 16 to 18 hrs; assay type: functional; settings: time 16-18 hrs
[4] = test system: Sortase A (Staphylococcus aureus), Q9S446 [UNDEFINED MUTATION]; test: Irreversible inhibition of Staphylococcus aureus sortase A N24 deletion mutant preincubated with compound for 1 to 60 mins followed by substrate addition by FRET based assay; settings: time 1-60 min, TDE = time-dependent effect
[5] = test system: Staphylococcus aureus; test: Antivirulence activity against Staphylococcus aureus Newman assessed as reduction in abundance of anchored SpA in bacterial envelope by Western blotting analysis; assay type: functional, organism-based; settings: dose 6.25-100 µM
[6] = test system: Staphylococcus aureus; test: Antivirulence activity against Staphylococcus aureus Newman assessed as reduction in abundance of Sbi at 6.25 to 100 uM by Western blotting analysis; assay type: functional, organism-based; settings: dose 6.25-100 µM
[7] = test system: Streptococcus pyogenes; test: Inhibition of Streptococcus pyogenes Sortase A N81 deletion mutant transpeptidation assessed as thermal stabilization by measuring change in melting temperature at 80 uM incubated for 15 mins by Nano-DSF assay
[8] = test system: Staphylococcus aureus; test: Antibacterial activity against Staphylococcus aureus Newman assessed as reduction in bacterial growth at 100 uM incubated for 14 hrs by microplate reader assay; assay type: functional, organism-based
[9] = test system: Staphylococcus aureus; test: Antibacterial activity against Staphylococcus aureus Newman infected in Galleria mellonella assessed as reduction in melanization at 200 uM pretreated with compound followed by larvae infection measured after 24 hrs; assay type: functional, organism-based
[10] = Toxicity in Galleria mellonella larvae assessed as change in appearance at 60 mg/kg measured after 120 hrs; assay type: organism-based; settings: in vivo
[11] = test system: Streptococcus pyogenes; test: Irreversible inhibition of Streptococcus pyogenes Sortase A N81 deletion mutant preincubated with compound for 1 to 60 mins followed by substrate addition by FRET based assay; settings: time 1-60 min, TDE = time-dependent effect
[12] = molecular target: Cathepsin B (Homo sapiens, UniProt P07858); test: Inhibition of cathepsin B (unknown origin) at 2 uM using Cbz-Phe-Arg-AMC as substrate preincubated for 5 mins followed by substrate addition by fluorescence based assay
[13] = Toxicity in Galleria mellonella assessed as change in color at 60 mg/kg measured after 120 hrs; assay type: organism-based; settings: in vivo
[14] = test system: Staphylococcus aureus; test: Antibacterial activity against Staphylococcus aureus USA300 assessed as reduction in bacterial growth at 100 uM incubated for 14 hrs by microplate reader assay; assay type: functional, organism-based
[15] = test system: Staphylococcus aureus; test: Inhibition of Staphylococcus aureus Newman biofilm formation incubated for 14 hrs by Crystal violet staining based assay; assay type: functional, organism-based; settings: dose 12.5-100 µM
[16] = test system: Staphylococcus aureus; test: Antibacterial activity against Staphylococcus aureus USA300 infected in Galleria mellonella assessed as reduction in melanization at 200 uM pretreated with compound followed by larvae infection measured after 24 hrs; assay type: functional, organism-based
[17] = Inhibition of Streptococcus pyogenes Sortase A N81 deletion mutant transpeptidation using IsdA64-323 as substrate preincubated for 20 mins followed by substrate addition and measured after 1.5 hrs by SDS-PAGE analysis
[18] = test system: Staphylococcus aureus; test: Antibacterial activity against Staphylococcus aureus Newman infected in Galleria mellonella assessed as increase in larvae survival at 30 mg/kg measured every 24 hrs for 5 days; assay type: functional; settings: time 5 day
[19] = molecular target: Procathepsin L (Homo sapiens, UniProt P07711); test: Inhibition of cathepsin L (unknown origin) at 2 uM using Cbz-Phe-Arg-AMC as substrate preincubated for 5 mins followed by substrate addition by fluorescence based assay
[20] = test system: Sortase A (Staphylococcus aureus), Q9S446 [UNDEFINED MUTATION]; test: Inhibition of Staphylococcus aureus Sortase A N24 deletion mutant transpeptidation assessed as thermal stabilization by measuring change in melting temperature at 80 uM incubated for 15 mins by Nano-DSF assay
[21] = test system: Staphylococcus aureus; test: Inhibition of Staphylococcus aureus USA300 biofilm formation incubated for 14 hrs by Crystal violet staining based assay; assay type: functional, organism-based; settings: dose 12.5-100 µM
[22] = Toxicity in Galleria mellonella larvae assessed as effect on survival at 60 mg/kg measured after 120 hrs; assay type: organism-based; settings: in vivo
[23] = test system: Staphylococcus aureus; test: Antibacterial activity against Staphylococcus aureus USA300 infected in Galleria mellonella assessed as increase in larvae survival at 30 mg/kg measured every 24 hrs for 5 days; assay type: functional; settings: time 5 day

Procathepsin L, sequence (P07711 114-333 limits assumed): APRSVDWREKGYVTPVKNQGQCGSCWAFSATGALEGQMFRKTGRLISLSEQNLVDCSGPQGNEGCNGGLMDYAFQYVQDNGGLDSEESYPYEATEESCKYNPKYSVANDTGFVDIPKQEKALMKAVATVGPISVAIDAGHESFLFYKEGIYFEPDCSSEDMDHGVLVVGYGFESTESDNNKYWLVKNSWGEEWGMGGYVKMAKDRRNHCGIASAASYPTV

In the case of `O=C1NC(=O)C(=C/C=C/c2ccccc2)C(=O)N1`, the IC50 [1] is reported as 8200 nM, the IC50 [2] is reported as 1100 nM and the MIC [3] is reported as > 128 µg/mL.
In the case of `COc1ccc(/C=C/C=C2C(=O)N(C)C(=S)N(C)C2=O)cc1`, the IC50 [2] is reported as > 50000 nM and the MIC [3] is reported as > 128 µg/mL.
In the case of `O=C1NC(=O)C(=C/C=C/c2cc(Cl)cc(Cl)c2)C(=O)N1`, the IC50 [2] is reported as 2000 nM and the MIC [3] is reported as 64 µg/mL (≈ 206 µM).
For `COC(=O)c1ccc(COc2ccc(/C=C/C=C3C(=O)NC(=O)NC3=O)cc2)cc1`, the IC50 [2] was > 50000 nM and the MIC [3] was > 128 µg/mL.
In the case of `O=C1NC(=O)C(=C/C=C/c2ccc([N+](=O)[O-])cc2)C(=O)N1`, the IC50 [2] is reported as 2000 nM and the MIC [3] is reported as 128 µg/mL (≈ 446 µM).
In the case of `COc1ncc(/C=C/C=C2C(=O)NC(=O)NC2=O)cn1`, the IC50 [2] is reported as 7700 nM and the MIC [3] is reported as > 128 µg/mL.
With `COc1ccc(/C(C#N)=C/C=C2C(=O)NC(=O)NC2=O)cc1` the IC50 [2] was 4700 nM and the MIC [3] was 128 µg/mL (≈ 431 µM).
With `CCCCc1ccc(COc2ccc(/C=C/C=C3C(=O)NC(=O)NC3=O)cc2)cc1` the IC50 [2] was > 50000 nM and the MIC [3] was > 128 µg/mL.
For `O=C1NC(=O)C(=C/C=C/c2ccc(OCc3ccccc3)cc2)C(=O)N1`, the IC50 [1] was 8900 nM, the IC50 [2] was 500 nM and the MIC [3] was > 128 µg/mL.
With `O=C1NC(=O)C(=C/C=C/c2ccc(Br)cc2)C(=O)N1` the IC50 [1] was 9000 nM, the IC50 [2] was 700 nM and the MIC [3] was 64 µg/mL (≈ 199 µM).
For `CC(C)(C)c1ccc(COc2ccc(/C=C/C=C3C(=O)NC(=O)NC3=O)cc2)cc1`, the IC50 [2] was > 50000 nM and the MIC [3] was 128 µg/mL (≈ 316 µM).
In the case of `O=C1NC(=O)C(=C/C=C/c2ccc(Cl)c(Cl)c2)C(=O)N1`, the IC50 [2] is reported as 1000 nM and the MIC [3] is reported as 32 µg/mL (≈ 103 µM).
In the case of `O=C1NC(=O)C(=C/C=C/c2ccc(OCC(=O)c3ccc[nH]3)cc2)C(=O)N1`, the IC50 [1] is reported as 15300 nM, the IC50 [2] is reported as 500 nM and the MIC [3] is reported as > 128 µg/mL.
For `O=C1NC(=O)C(=C/C=C/c2ccc(OC(=O)CNC(=O)OCc3ccccc3)cc2)C(=O)N1`, the IC50 [2] was 1800 nM and the MIC [3] was > 128 µg/mL.
In the case of `CC(=O)Oc1ccc(/C=C/C=C2C(=O)NC(=O)NC2=O)cc1`, the IC50 [2] is reported as 1800 nM and the MIC [3] is reported as > 128 µg/mL.
With `COc1ccc(/C=C/C=C2C(=O)NC(=O)NC2=O)cn1` the IC50 [2] was 2300 nM and the MIC [3] was > 128 µg/mL.
With `O=C1NC(=O)C(=C/C=C/c2ccc(OCc3cccnc3)cc2)C(=O)N1` the IC50 [2] was > 50000 nM and the MIC [3] was > 128 µg/mL.
For `COc1ccc(/C=C/C=C2C(=O)NC(=O)NC2=O)cc1`, the inhibition [4] was “Tde”, the IC50 [1] was 7400 nM and the Activity [5] was “Active”. For the same compound, the Activity [6] was “Active”, the ΔTm [7] was 9.3 °C and the Activity [8] was “inactive”. The Activity [9] was “Active”, the Activity [10] was “Non-Toxic” and the inhibition [11] was “Tde”. The inhibition [12] was “Active”, the Activity [13] was “Non-Toxic” and the Activity [14] was “inactive”. For the same compound, the inhibition [15] was “Dose-Dependent Effect”, the Activity [16] was “Active” and the IC50 [17] was 3400 nM. The Activity [18] was <40%, the inhibition [19] was “Active” and the ΔTm [20] was 4.5 °C. For the same compound, the IC50 [2] was 1000 nM, the inhibition [21] was “Dose-Dependent Effect” and the Activity [22] was “Non-Toxic”. For the same compound, the MIC [3] was > 128 µg/mL and the Activity [23] was 40%.
For `O=C1NC(=O)C(=Cc2ccc(-c3ccc(Br)cc3)o2)C(=O)N1`, the IC50 [2] was > 50000 nM and the MIC [3] was 64 µg/mL (≈ 177 µM).
In the case of `COC(=O)c1ccc(/C=C/C=C2C(=O)NC(=O)NC2=O)cc1`, the IC50 [2] is reported as 2200 nM and the MIC [3] is reported as > 128 µg/mL.
Compound `CC(C)CCC(=O)Oc1ccc(/C=C/C=C2C(=O)NC(=O)NC2=O)cc1` has an IC50 [2] of 1500 nM and an MIC [3] of 128 µg/mL (≈ 359 µM).
Compound `CC(C)c1ccc(/C=C/C=C2C(=O)NC(=O)NC2=O)cc1` has an IC50 [2] of 1800 nM and an MIC [3] of 32 µg/mL (≈ 113 µM).
In the case of `COc1ccc(/C=C/C=C2C(=O)c3ccccc3C2=O)cc1`, the IC50 [2] is reported as > 50000 nM and the MIC [3] is reported as > 128 µg/mL.
In the case of `O=C1NC(=O)C(=CNCc2ccc(Br)cc2)C(=O)N1`, the IC50 [2] is reported as > 50000 nM and the MIC [3] is reported as > 128 µg/mL.
In the case of `CN(C)c1ccc(/C=C/C=C2C(=O)NC(=O)NC2=O)cc1`, the IC50 [2] is reported as > 50000 nM and the MIC [3] is reported as > 128 µg/mL.
In the case of `O=C(CNC(=O)OCc1ccccc1)NCC(=O)Oc1ccc(/C=C/C=C2C(=O)NC(=O)NC2=O)cc1`, the IC50 [2] is reported as 1700 nM and the MIC [3] is reported as 32 µg/mL (≈ 63.2 µM).
For `COC(=O)COc1ccc(/C=C/C=C2C(=O)NC(=O)NC2=O)cc1`, the IC50 [2] was 1000 nM and the MIC [3] was > 128 µg/mL.
